Assay results: paper PMC8763936 (Investigational New Drugs, 2021)
pIC50: −log10 of the molar value. Values joined by “and” are separate entries in the source; they are usually repeats but may differ in a detail not shown here. Identical values can stand only once. Marks after values point to notes of the source that are not given here.

Tests used:
CYP2C8 = molecular target: T1, CYP2C8 (Homo sapiens, UniProt P10632); experiment: Metabolism by recombinantly expressed CYP enzymes
T1 sequence (P10632 1-490): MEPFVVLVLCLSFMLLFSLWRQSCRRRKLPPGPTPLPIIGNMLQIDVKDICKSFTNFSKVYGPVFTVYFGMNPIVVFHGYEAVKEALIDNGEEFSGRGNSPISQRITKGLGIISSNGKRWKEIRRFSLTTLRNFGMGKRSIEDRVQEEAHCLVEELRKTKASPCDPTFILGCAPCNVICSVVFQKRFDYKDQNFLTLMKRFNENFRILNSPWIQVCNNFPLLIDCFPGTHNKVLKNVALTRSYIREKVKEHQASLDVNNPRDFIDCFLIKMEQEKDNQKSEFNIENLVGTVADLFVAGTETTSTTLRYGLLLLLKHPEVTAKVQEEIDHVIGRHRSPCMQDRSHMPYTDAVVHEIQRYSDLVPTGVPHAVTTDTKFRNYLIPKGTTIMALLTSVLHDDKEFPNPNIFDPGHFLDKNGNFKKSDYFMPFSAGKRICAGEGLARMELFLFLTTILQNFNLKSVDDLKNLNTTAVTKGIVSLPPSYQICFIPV

[1] = system: CYPs 1A2, 2B6, 2C8, 2C9, 2C19 and 2D6 (all tested CYPs but CYP3A4/5); experiment: In vitro CYP inhibition in human liver microsomes, CYPs not named one by one; format: in vitro ADME; conditions: human, read-out: IC50 for the other CYPs tested
CYP2C19 [2] = molecular target: T2, CYP2C19 (Homo sapiens, UniProt P33261); experiment: Metabolism by recombinantly expressed CYP enzymes; set-up: Entrectinib Metabolism to M5: key to the marks not given beside the values
CYP2D6 [3] = molecular target: T3, CYP2D6 (Homo sapiens, UniProt P10635); experiment: In vitro CYP inhibition in human liver microsomes; format: in vitro ADME; set-up: purchased Corning-Gentest
CYP2C9 = CYP2C9 (Homo sapiens, UniProt P11712); experiment: Metabolism by recombinantly expressed CYP enzymes
MDR1 (P-gp) = molecular target: T4, MDR1 (P-gp) (Homo sapiens, UniProt P08183); experiment: In vitro P-gp inhibition; format: in vitro ADME
T4 construct: expressed in transfected cells

[4] = Metabolic profile of entrectinib in pooled human liver microsomes
[5] = Metabolic profile of entrectinib in human hepatocytes
CYP3A5 = CYP3A5 (Homo sapiens, UniProt P20815); experiment: Metabolism by recombinantly expressed CYP enzymes; set-up: Entrectinib Metabolism to M5 / M5 Metabolism: key to the marks not given beside the values
CYP1A1 = molecular target: T5, CYP1A1 (Homo sapiens, UniProt P04798); experiment: Metabolism by recombinantly expressed CYP enzymes; set-up: Entrectinib Metabolism to M5: key to the marks not given beside the values
T5 sequence (P04798 1-512): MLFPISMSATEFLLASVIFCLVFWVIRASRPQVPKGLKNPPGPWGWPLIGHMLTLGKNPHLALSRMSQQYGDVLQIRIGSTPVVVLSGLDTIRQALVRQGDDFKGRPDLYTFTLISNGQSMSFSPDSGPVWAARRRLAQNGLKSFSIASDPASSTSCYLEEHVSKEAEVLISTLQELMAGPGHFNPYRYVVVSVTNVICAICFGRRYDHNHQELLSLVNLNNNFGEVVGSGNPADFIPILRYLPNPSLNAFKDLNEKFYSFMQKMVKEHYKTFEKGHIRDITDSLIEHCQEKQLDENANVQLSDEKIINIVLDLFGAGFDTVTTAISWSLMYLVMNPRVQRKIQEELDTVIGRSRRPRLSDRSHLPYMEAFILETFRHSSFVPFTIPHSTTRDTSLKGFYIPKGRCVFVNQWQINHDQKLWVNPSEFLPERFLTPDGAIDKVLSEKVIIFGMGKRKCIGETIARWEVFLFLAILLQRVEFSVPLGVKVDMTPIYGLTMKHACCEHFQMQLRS

[6] = Study 1 Cohort 2: single dose entrectinib alone or with rifampin, plasma pharmacokinetics; conditions: for t1/2 / half-life / AUCinf / Cmax: geometric mean (geometric CV); for M5/Entrectinib ratio, AUCinf / M5/Entrectinib ratio, Cmax: arithmetic mean (CV)
Method: All doses of study medication were administered at the study center.

CYP2C19 [7] = molecular target: T2, CYP2C19; experiment: In vitro CYP inhibition in human liver microsomes; format: in vitro ADME; set-up: purchased Corning-Gentest
CYP2D6 [8] = molecular target: T3, CYP2D6; experiment: Metabolism by recombinantly expressed CYP enzymes
[9] = system: human CYPs 1A2, 2B6, 2C8, 2C9, 2C19, 2D6 and 3A; experiment: In vitro CYP inhibition in human liver microsomes, CYPs not named one by one; format: in vitro ADME; conditions: entrectinib: all but CYP3A4/5, M5: all but CYP2C8, read-out: IC50 for the other CYPs tested
[10] = set-up: method as in Roche data on file; conditions: human plasma; ref Roche data on file; cited from earlier work
[11] = system: CYPs 1A2, 2B6, 2C19, and 3A4; experiment: Induction of CYP enzymes in human hepatocytes, CYPs tested taken together; format: in vitro ADME
CYP2B6 = experiment: Induction of CYP enzymes in human hepatocytes; format: in vitro ADME; conditions: percent of positive control
CYP2C19 [12] = experiment: Induction of CYP enzymes in human hepatocytes; conditions: percent of positive control
Method: In vitro induction of CYP mRNA (CYPs 1A2, 2C8, 2C9 and 3A4) or enzyme activity (CYPs 1A2, 2C19 and 3A4) was assessed in human hepatocytes.

[13] = humans, mass balance study; cited from earlier work
[14] = Intrinsic clearance in long-term micropatterned co-cultured human hepatocytes; format: in vitro ADME
[15] = Entrectinib 600 mg with rifampin 600 mg QD
[16] = Entrectinib 600 mg with rifampin

CYP2C9, sequence (P11712 whole entry): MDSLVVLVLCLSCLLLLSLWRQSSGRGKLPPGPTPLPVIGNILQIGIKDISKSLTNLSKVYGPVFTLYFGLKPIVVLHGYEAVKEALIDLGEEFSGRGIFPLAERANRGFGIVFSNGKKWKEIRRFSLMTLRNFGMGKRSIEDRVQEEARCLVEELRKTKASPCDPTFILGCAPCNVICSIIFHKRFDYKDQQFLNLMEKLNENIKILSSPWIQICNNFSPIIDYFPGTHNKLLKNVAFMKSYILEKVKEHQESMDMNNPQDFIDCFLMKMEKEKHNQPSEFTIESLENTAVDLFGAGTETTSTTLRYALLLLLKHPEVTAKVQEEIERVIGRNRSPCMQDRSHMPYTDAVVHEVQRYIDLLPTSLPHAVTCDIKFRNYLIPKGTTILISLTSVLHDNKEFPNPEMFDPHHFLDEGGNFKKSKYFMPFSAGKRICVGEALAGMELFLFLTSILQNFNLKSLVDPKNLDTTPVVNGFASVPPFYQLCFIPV
T2 sequence (P33261 whole entry): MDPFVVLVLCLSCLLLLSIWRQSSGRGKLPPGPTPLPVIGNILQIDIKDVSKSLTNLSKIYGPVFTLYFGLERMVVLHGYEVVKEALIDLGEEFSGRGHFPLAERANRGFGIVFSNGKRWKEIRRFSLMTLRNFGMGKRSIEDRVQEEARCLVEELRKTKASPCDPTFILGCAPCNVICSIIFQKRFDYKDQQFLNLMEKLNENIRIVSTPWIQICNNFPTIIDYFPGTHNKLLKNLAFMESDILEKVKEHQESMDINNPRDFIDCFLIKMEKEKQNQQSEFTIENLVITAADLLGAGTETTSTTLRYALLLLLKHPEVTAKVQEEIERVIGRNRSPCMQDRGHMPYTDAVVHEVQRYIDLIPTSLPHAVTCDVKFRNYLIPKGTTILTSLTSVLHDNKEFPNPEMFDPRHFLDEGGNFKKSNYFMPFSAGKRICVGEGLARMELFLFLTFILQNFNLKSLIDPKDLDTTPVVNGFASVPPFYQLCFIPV
CYP3A5, sequence (P20815 whole entry): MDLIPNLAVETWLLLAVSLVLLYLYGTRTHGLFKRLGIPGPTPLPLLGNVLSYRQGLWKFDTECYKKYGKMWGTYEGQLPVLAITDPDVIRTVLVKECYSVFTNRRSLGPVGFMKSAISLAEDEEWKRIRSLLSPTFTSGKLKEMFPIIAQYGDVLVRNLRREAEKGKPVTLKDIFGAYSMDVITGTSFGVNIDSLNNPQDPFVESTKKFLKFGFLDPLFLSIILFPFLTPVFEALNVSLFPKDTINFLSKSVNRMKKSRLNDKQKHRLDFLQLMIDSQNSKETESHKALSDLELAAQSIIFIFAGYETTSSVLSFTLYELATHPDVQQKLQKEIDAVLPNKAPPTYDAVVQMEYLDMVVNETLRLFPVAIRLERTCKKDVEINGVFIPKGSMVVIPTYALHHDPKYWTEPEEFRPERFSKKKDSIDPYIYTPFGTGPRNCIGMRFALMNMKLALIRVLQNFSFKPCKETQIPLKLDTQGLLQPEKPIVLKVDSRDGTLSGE
T4 sequence (P08183 whole entry): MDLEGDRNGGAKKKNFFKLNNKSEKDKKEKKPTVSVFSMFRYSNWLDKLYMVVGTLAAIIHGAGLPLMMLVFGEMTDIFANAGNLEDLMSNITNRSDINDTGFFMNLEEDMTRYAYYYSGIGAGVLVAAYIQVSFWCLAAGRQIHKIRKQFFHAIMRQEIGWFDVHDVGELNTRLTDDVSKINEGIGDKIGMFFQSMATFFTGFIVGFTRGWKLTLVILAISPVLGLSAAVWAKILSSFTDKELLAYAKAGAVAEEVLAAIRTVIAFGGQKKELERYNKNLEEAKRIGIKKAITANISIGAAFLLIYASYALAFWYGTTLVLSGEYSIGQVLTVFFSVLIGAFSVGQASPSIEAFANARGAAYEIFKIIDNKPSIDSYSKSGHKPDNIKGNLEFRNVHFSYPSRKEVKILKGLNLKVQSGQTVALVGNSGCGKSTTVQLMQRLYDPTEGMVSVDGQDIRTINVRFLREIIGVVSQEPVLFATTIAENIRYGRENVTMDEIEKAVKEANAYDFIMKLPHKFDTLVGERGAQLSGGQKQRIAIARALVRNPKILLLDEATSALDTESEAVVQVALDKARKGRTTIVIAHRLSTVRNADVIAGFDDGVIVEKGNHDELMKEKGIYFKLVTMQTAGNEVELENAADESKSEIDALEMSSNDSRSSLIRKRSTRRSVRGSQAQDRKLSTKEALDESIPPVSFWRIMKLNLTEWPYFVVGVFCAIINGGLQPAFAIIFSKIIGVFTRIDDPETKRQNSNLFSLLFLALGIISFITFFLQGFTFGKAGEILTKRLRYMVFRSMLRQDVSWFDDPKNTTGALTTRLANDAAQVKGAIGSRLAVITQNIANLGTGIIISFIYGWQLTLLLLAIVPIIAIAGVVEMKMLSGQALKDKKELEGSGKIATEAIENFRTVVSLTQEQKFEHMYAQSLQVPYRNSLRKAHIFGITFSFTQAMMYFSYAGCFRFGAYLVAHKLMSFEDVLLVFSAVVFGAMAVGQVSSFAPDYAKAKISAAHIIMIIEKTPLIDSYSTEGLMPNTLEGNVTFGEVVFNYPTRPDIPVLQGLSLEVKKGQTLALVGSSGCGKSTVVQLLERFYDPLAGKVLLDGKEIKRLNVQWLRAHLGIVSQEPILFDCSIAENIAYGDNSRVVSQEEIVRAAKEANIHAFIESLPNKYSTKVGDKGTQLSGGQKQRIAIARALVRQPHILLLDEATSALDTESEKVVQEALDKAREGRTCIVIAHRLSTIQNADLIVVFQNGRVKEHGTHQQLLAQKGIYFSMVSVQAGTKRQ
T3 sequence (P10635 whole entry): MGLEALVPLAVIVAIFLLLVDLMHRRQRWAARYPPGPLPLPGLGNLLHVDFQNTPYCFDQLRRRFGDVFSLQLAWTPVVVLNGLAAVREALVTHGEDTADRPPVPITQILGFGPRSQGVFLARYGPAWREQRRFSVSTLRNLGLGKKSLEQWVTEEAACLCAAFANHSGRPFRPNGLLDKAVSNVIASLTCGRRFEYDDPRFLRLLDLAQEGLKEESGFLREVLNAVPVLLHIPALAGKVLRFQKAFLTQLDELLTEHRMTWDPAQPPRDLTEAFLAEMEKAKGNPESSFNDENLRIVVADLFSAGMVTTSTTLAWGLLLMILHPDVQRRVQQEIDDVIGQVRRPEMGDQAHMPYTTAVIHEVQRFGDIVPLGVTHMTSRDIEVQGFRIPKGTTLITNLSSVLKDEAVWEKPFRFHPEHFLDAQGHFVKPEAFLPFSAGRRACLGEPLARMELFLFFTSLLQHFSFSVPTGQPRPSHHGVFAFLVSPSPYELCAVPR

CN1CCN(c2ccc(C(=O)Nc3n[nH]c4ccc(Cc5cc(F)cc(F)c5)cc34)c(NC3CCOCC3)c2)CC1 [Entrectinib]
Entrectinib Metabolism to M5 (CYP2C8): +
Entrectinib Metabolism to other Products (CYP2C8): +
pIC50 [1]: < 5.00
Entrectinib Metabolism to M5 (CYP2C19 [2]): ++
Entrectinib Metabolism to other Products (CYP2C19 [2]): -
pIC50 (CYP2D6 [3]): < 5.00
Entrectinib Metabolism to M5 (CYP2C9): -
Entrectinib Metabolism to other Products (CYP2C9): -
pIC50 (MDR1 (P-gp)): 5.88 and 5.89
parent remained ([4]; 60 min incubation, pooled human liver microsomes with NADPH): 47%
drug metabolized ([5]; after 120 min of incubation): 29%
Entrectinib Metabolism to M5 (CYP3A5): ++
Entrectinib Metabolism to other Products (CYP3A5): +
Entrectinib Metabolism to M5 (CYP1A1): ++
Entrectinib Metabolism to other Products (CYP1A1): +
t1/2 ([6]; Entrectinib 600 mg alone): 16.7 (16%) h
t1/2 [6, 15]: 9.9 (26%) h
decrease of AUCinf ([6]; entrectinib coadministered with rifampin vs alone): 77%
Tmax ([6]; human, in vivo, 600 mg): 2.0 (2.0, 5.0) h
Tmax ([6]; human, in vivo, 600 mg, Tmax): 3.5 h
half-life ([6]; human, in vivo, 600 mg, t1/2, Entrectinib 600 mg alone): 17 h
half-life ([6]; human, in vivo, 600 mg, t1/2, Entrectinib 600 mg with rifampin 600 mg QD): 10 h
pIC50 (CYP2C19 [7]): < 5.00
Entrectinib Metabolism to M5 (CYP2D6 [8]): +
Entrectinib Metabolism to other Products (CYP2D6 [8]): -

O=C(Nc1n[nH]c2ccc(Cc3cc(F)cc(F)c3)cc12)c1ccc(N2CCNCC2)cc1NC1CCOCC1 [M5]
M5 Metabolism (CYP2C8): -
pIC50 [9]: < 5.00
M5 Metabolism (CYP2C19 [2]): -
pIC50 (CYP2D6 [3]): < 5.00
M5 Metabolism (CYP2C9): -
unbound fraction [10]: < 1%
impact on the activities of the CYPs tested [11]: no significant impact
pIC50 (MDR1 (P-gp)): 5.00
share of [14C]entrectinib-derived radioactivity ([4]; human liver microsomes): 28%
Relative Effectiveness ± SD Based on CYP Activity (CYP2B6; M5 0.5 µM): 2.98% ±2.91
Relative Effectiveness ± SD Based on CYP mRNA (CYP2B6; M5 0.5 µM): 4.22% ±4.37
Relative Effectiveness ± SD Based on CYP Activity (CYP2B6; M5 2.5 µM): 9.02% ±8.75
Relative Effectiveness ± SD Based on CYP mRNA (CYP2B6; M5 2.5 µM): 19.3% ±11.4
Relative Effectiveness ± SD Based on CYP Activity (CYP2B6; M5 10 µM): 9.56% ±8.52
Relative Effectiveness ± SD Based on CYP mRNA (CYP2B6; M5 10 µM): 26.5% ±10.7
Relative Effectiveness ± SD Based on CYP Activity (CYP2C19 [12]; M5 0.5 µM): -1.21% ±0.94
Relative Effectiveness ± SD Based on CYP Activity (CYP2C19 [12]; M5 2.5 µM): -3.22% ±3.41
Relative Effectiveness ± SD Based on CYP Activity (CYP2C19 [12]; M5 10 µM, n=2): -9.87% ^a
share of entrectinib metabolism [5]: 41%
share of total drug-related material [5]: 12%
M5 Metabolism (CYP3A5): ++
M5 Metabolism (CYP1A1): +
AUCinf ([6]; Entrectinib 600 mg alone, single dose, healthy subjects, fasted): 11,000 (44%) nM•h
M5/Entrectinib ratio, AUCinf ([6]; Entrectinib 600 mg alone): 0.337 (56%)
M5/Entrectinib ratio, Cmax ([6]; Entrectinib 600 mg alone): 0.234 (59%)
Cmax ([6]; Entrectinib 600 mg alone): 383 nM
t1/2 ([6]; Entrectinib 600 mg alone): 33.8 (12%) h
Tmax ([6]; Entrectinib 600 mg alone, median (minimum, maximum)): 5.0 (4.0, 5.0) h
AUCinf [6, 15]: 1530 (28%) nM•h
Cmax [6, 15]: 108 nM
t1/2 [6, 15]: 31.1 (28%) h
Tmax ([6]; Entrectinib 600 mg with rifampin 600 mg QD, median (minimum, maximum)): 3.0 (2.0, 6.0) h
M5/Entrectinib ratio, AUCinf [6, 16]: 0.187 (28%)
M5/Entrectinib ratio, Cmax [6, 16]: 0.136 (23%)
M5 exposure as share of entrectinib exposure (mean M5/entrectinib ratio for AUCinf) ([6]; entrectinib 600 mg alone): approximately 34%
M5 exposure as share of entrectinib exposure (mean M5/entrectinib ratio for AUCinf) ([6]; entrectinib 600 mg coadministered with rifampin): 19%
mean t1/2 ([6]; following entrectinib alone and with rifampin): 31 to 34 h
pIC50 (CYP2C19 [7]): < 5.00
M5 Metabolism (CYP2D6 [8]): -
share of total circulating radioactivity [13]: 12%
intrinsic clearance relative to entrectinib [14]: approximately twofold lower intrinsic clearance than entrectinib
